Ends that are not written are not given here.
How the values were obtained:
HUMEC = assay: Cell Titer Glo cell viability assay, breast cancer cell line panel; type: cell-based; settings: 8 hours
Experimental: (§1) To test the specificity of the EN1-iPep in cell lines expressing EN1, the inventors delivered the iPeps into a panel of breast cancer cell lines expressing different amounts of EN1.
(§2) All peptides were synthetized at the UNC High-Throughput Peptide Synthesis and Array Facility at UNC. Taxol, Rotenone and Halofuginone (Sigma-Aldrich, St Louis, Mo.) were dissolved in DMSO. A total of […] or 1×10^3 breast cells for peptide and drug treatment respectively, were seeded in 96-well plates. Cells were exposed for 8 hours to the peptide and 48 to 72 hours for drug treatment. The cell viability after peptide/drug treatment was assayed with the Cell Titer Glo (CTG) assay (Promega, Madison, Wis., USA).

SUM102 = assay: as above; type: cell-based; settings: SUM102, 8 hours
Experimental: as §1, §2

SUM159PT = assay: as above; type: cell-based; settings: 8 hours
Experimental: as §1, §2

MDA-MB-231 = assay: as above; type: cell-based; settings: MDA-MB-231, 8 hours
Experimental: as §1, §2

SUM229 = assay: as above; type: cell-based; settings: SUM229, 8 hours
Experimental: as §1, §2

MCF7 = assay: as above; type: cell-based; settings: MCF7, 8 hours
Experimental: as §1, §2

PAX6 = molecular target: T1, PAX6 (Homo sapiens, UniProt P26367); assay: Immunoprecipitation and western blotting of TFHDs from SUM149PT extracts; type: binding; settings: versus control peptide
T1 construct: endogenous in cells; host or cells: SUM149PT total protein extract
Description: To investigate the binding partners of the iPeps in cancer cells, the inventors carried out affinity capture immunoprecipitation experiments using the biotinylated active iPep624 as bait, and the iPep624ΔHEX as negative control. They used total protein extracts from SUM149PT cells to capture endogenous proteins able to bind these peptides in vitro. Elutes were loaded in a 1D-SDS PAGE gel to visualize the enrichment of individual proteins. […] In addition, overexpression of EN1 cDNA into two different breast cell lines confirmed the interaction of the full length EN1 with the endogenous EPRS inside the cells (FIG. 6c). To ascertain whether some downstream well-known effectors of EPRS were also differentially regulated by the iPeps, we performed real time PCR to detect mRNA levels of COLA1, COLA2, S1004A and DDIT3 (CHOP). […] COLA1 and COLA2 encode collagen proteins highly enriched by the amino acid proline and S1004A is a protein involved in metastasis and fibrosis. […] In contrast, the amino acid stress factor DDIT3 is stimulated upon EPRS inhibition. […]
The iPep624 and iPep624ΔHEX were coupled to a C-terminal biotin and immobilized in streptavidin-coated beads. […] Detection was performed with ECL Detection System (GE Healthcare) and quantitated using Image J v1.46 (ImageJ, NCBI).

[1] = tested on: mRNA levels of COLA1, COLA2, S1004A and DDIT3 (CHOP); assay: Real time PCR of downstream effectors of EPRS in SUM149PT cells; type: cell-based, human
Description: FIG. 6 EN1-Ipeps binds the endogenous Glutamyl-Prolyl tRNA synthetase (EPRS) target and regulates downstream EPRS effectors in breast cancer cells. (a) EN1-iPep624 (SEQ ID NO: 5) captures and binds EPRS from total extracts of SUM149-PT cells. Affinity-capture immunoprecipitation and western blot detection of EPRS using biotinylated iPeps as bait, and total extracts of SUM149-PT cells. Same input loading of extract is shown in the SDS-PAGE gel on the left. […] The immunoprecipitations were done at least three times and averages and standard errors between experiments are indicated (p<0.01*, p<0.001**). (b) Full length EN1 binds the endogenous EPRS in MDA-MB-231 and SUM149PT cells. Total extracts of MDA-MB-231 and SUM149PT expressing either a full length EN1 cDNA engineered with a N-terminal FLAG tag or an empty-vector control were processed by immunoprecipitation with an anti-FLAG antibody. Immunoprecipitated complexes were blotted with an EPRS-specific antibody to detect endogenous EPRS. The same amount of loaded extracts (INPUT) is shown with anti-tubulin as endogenous control. The enrichment of the immunoprecipitated products was determined by quantification of the bands by densitometry as described above, and data was normalized to iPep624ΔHEX (SEQ ID NO: 18) control. […] Cell viability was determined by a Cell Titer Glo assay and IC50 concentrations determined as described in FIG. 5. […]

T1 sequence (P26367 whole entry): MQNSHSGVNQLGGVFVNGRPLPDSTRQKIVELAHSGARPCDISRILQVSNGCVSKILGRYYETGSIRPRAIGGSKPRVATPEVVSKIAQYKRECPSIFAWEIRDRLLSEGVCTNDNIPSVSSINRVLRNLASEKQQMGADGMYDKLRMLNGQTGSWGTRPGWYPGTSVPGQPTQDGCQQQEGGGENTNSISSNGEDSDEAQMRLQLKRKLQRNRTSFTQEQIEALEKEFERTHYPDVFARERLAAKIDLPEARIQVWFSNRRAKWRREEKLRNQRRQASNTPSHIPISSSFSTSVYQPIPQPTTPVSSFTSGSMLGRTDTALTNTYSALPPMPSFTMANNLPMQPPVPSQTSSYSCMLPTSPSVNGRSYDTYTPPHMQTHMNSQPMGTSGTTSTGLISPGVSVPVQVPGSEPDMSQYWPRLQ

KKKRKVTDSQQPLVWPAWVYCTRYSDRPS [iPep624]
cell viability (HUMEC): no effect on cell viability | cell viability (SUM102): decreased cell viability | cell viability (SUM159PT): decreased cell viability | cell viability (MDA-MB-231): no effect on cell viability | cell viability (SUM229): decreased cell viability | cell viability (MCF7): no effect on cell viability | interaction with PAX6 (PAX6): specific interactions | DDIT3 mRNA in EN1-overexpressing cells ([1]; 15 μM active iPep over control): significantly up-regulated | up-regulation of COLA1, COLA2 and S1004A mRNA in EN1-overexpressing cells ([1]; 15 μM active peptide): significantly reverted

Source: US10201610B2, “Interference peptides and use thereof” (The University of Western Australia, priority 2014, dated 2019)
